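Values below derive from 48-hour exposures of cells grown in 96-well plates, with endpoints linearly interpolated between the two concentrations bracketing the appropriate inhibition level. GI50: concentration for 50% inhibition of growth. The concentration for full growth arrest is given as TGI.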
The compounds below were run on SF-295 CNS (assay: NCI anticancer screen, dose series, 48 h).

SMILES | GI50 | TGI
C#C[C@]1(O)CC[C@H]2[C@@H]3CC=C4c5nc(N)sc5CC[C@]4(C)[C@H]3CC[C@@]21C | 1.98 µM | 4.05 µM
CCOC(=O)c1c(CN2CCN(C)CC2)nc2ccc(Cl)cc2c1-c1ccccc1 | 3.27 µM | 9.95 µM
O=CN1N=C(c2cccc(Nc3ccnc4cc(Cl)ccc34)c2)CC1c1ccc(Cl)cc1 (stereo not drawn) | 1.06 µM | 8.12 µM
OCCN(CO)CO | – | > 100 µM
CN1CC[C@H](c2c(O)cc(O)c3c(=O)cc(-c4ccccc4Cl)oc23)[C@H](O)C1 | 0.21 µM | 0.625 µM
COc1cc(-c2nn(-c3cccc(NC(=O)CCNc4ccc(N5CCOCC5)cc4)c3)cc2-c2ccncc2)ccc1Cl | 2.09 µM | 26 µM
CC(=O)Oc1cc2cnc3c4cc(OC(C)=O)c(OC(C)=O)cc4ccc3c2cc1OC(C)=O | 3.36 µM | > 100 µM
CCCCCC[C@H]1C(=O)O[C@H](C)[C@H](NC(=O)c2cccc(NC=O)c2OC)C(=O)O[C@@H](C)[C@@H]1OC(=O)CCC (tested in a mixture with another compound) | 5.99 µM | 20.8 µM
CC1OC(OC2C(O)C(O)C(O)C(O)C2O)C(N)CC1N=C(N)C(=O)O (stereo not drawn) | – | > 100 µM
C=CC(=O)Nc1cc2c(Nc3ccc(F)c(Cl)c3)ncnc2cc1C#CC(C)(C)N1CCN(C)CC1 | 2.94 µM | 6.62 µM
CSC1=Nc2c(c(C)c(-c3ccccc3)n2COC(CO)CO)C2=NC(=O)CC(C)N12 (stereo not drawn) | > 100 µM | > 100 µM
C=C1C[C@@H]2O[C@H]3[C@H]4[C@@H](CC[C@@](C)(OC(=O)CCC)[C@H]42)[C@@H](C)C(=O)O[C@@]3(C)CC[C@H]1OO | 17.8 µM | 36.1 µM

These compounds were tested on HCC-2998 colon (assay: NCI anticancer screen, dose series, 48 h).

SMILES | GI50 | TGI
C#C[C@]1(O)CC[C@H]2[C@@H]3CC=C4c5nc(N)sc5CC[C@]4(C)[C@H]3CC[C@@]21C | 4.21 µM | 19.2 µM
CCOC(=O)c1c(CN2CCN(C)CC2)nc2ccc(Cl)cc2c1-c1ccccc1 | 1.86 µM | 4.4 µM
O=CN1N=C(c2cccc(Nc3ccnc4cc(Cl)ccc34)c2)CC1c1ccc(Cl)cc1 (stereo not drawn) | 3.36 µM | > 100 µM
OCCN(CO)CO | – | > 100 µM
CN1CC[C@H](c2c(O)cc(O)c3c(=O)cc(-c4ccccc4Cl)oc23)[C@H](O)C1 | 0.124 µM | 0.761 µM
COc1cc(-c2nn(-c3cccc(NC(=O)CCNc4ccc(N5CCOCC5)cc4)c3)cc2-c2ccncc2)ccc1Cl | 4.77 µM | > 100 µM
CC(=O)Oc1cc2cnc3c4cc(OC(C)=O)c(OC(C)=O)cc4ccc3c2cc1OC(C)=O | 3.74 µM | > 100 µM
CCCCCC[C@H]1C(=O)O[C@H](C)[C@H](NC(=O)c2cccc(NC=O)c2OC)C(=O)O[C@@H](C)[C@@H]1OC(=O)CCC (tested in a mixture with another compound) | 14.9 µM | 38.2 µM
CC1OC(OC2C(O)C(O)C(O)C(O)C2O)C(N)CC1N=C(N)C(=O)O (stereo not drawn) | – | > 100 µM
C=CC(=O)Nc1cc2c(Nc3ccc(F)c(Cl)c3)ncnc2cc1C#CC(C)(C)N1CCN(C)CC1 | 1.83 µM | 4.25 µM
CSC1=Nc2c(c(C)c(-c3ccccc3)n2COC(CO)CO)C2=NC(=O)CC(C)N12 (stereo not drawn) | > 100 µM | > 100 µM
C=C1C[C@@H]2O[C@H]3[C@H]4[C@@H](CC[C@@](C)(OC(=O)CCC)[C@H]42)[C@@H](C)C(=O)O[C@@]3(C)CC[C@H]1OO | 15.9 µM | 29.4 µM

Each compound was assayed on MALME-3M melanoma (assay: NCI anticancer screen, dose series, 48 h).

SMILES | GI50 | TGI
C#C[C@]1(O)CC[C@H]2[C@@H]3CC=C4c5nc(N)sc5CC[C@]4(C)[C@H]3CC[C@@]21C | 2.83 µM | 8.98 µM
CCOC(=O)c1c(CN2CCN(C)CC2)nc2ccc(Cl)cc2c1-c1ccccc1 | 1.75 µM | 4.09 µM
O=CN1N=C(c2cccc(Nc3ccnc4cc(Cl)ccc34)c2)CC1c1ccc(Cl)cc1 (stereo not drawn) | 1.63 µM | > 100 µM
OCCN(CO)CO | – | > 100 µM
CN1CC[C@H](c2c(O)cc(O)c3c(=O)cc(-c4ccccc4Cl)oc23)[C@H](O)C1 | 0.154 µM | 0.594 µM
COc1cc(-c2nn(-c3cccc(NC(=O)CCNc4ccc(N5CCOCC5)cc4)c3)cc2-c2ccncc2)ccc1Cl | 2.31 µM | 6.93 µM
CC(=O)Oc1cc2cnc3c4cc(OC(C)=O)c(OC(C)=O)cc4ccc3c2cc1OC(C)=O | 1.55 µM | 9.33 µM
CCCCCC[C@H]1C(=O)O[C@H](C)[C@H](NC(=O)c2cccc(NC=O)c2OC)C(=O)O[C@@H](C)[C@@H]1OC(=O)CCC (tested in a mixture with another compound) | 15.3 µM | 41.2 µM
CC1OC(OC2C(O)C(O)C(O)C(O)C2O)C(N)CC1N=C(N)C(=O)O (stereo not drawn) | – | > 100 µM
C=CC(=O)Nc1cc2c(Nc3ccc(F)c(Cl)c3)ncnc2cc1C#CC(C)(C)N1CCN(C)CC1 | 1.49 µM | 5.05 µM
CSC1=Nc2c(c(C)c(-c3ccccc3)n2COC(CO)CO)C2=NC(=O)CC(C)N12 (stereo not drawn) | > 100 µM | > 100 µM
C=C1C[C@@H]2O[C@H]3[C@H]4[C@@H](CC[C@@](C)(OC(=O)CCC)[C@H]42)[C@@H](C)C(=O)O[C@@]3(C)CC[C@H]1OO | 18 µM | 37.1 µM

The compounds below were run on HOP-62 NSCLC (assay: NCI anticancer screen, dose series, 48 h).

SMILES | GI50 | TGI
C#C[C@]1(O)CC[C@H]2[C@@H]3CC=C4c5nc(N)sc5CC[C@]4(C)[C@H]3CC[C@@]21C | 3.43 µM | 14.7 µM
CCOC(=O)c1c(CN2CCN(C)CC2)nc2ccc(Cl)cc2c1-c1ccccc1 | 11.2 µM | 25 µM
O=CN1N=C(c2cccc(Nc3ccnc4cc(Cl)ccc34)c2)CC1c1ccc(Cl)cc1 (stereo not drawn) | 1.91 µM | > 100 µM
OCCN(CO)CO | – | > 100 µM
CN1CC[C@H](c2c(O)cc(O)c3c(=O)cc(-c4ccccc4Cl)oc23)[C@H](O)C1 | 0.0515 µM | > 2.62 µM
COc1cc(-c2nn(-c3cccc(NC(=O)CCNc4ccc(N5CCOCC5)cc4)c3)cc2-c2ccncc2)ccc1Cl | 3.48 µM | 22.3 µM
CC(=O)Oc1cc2cnc3c4cc(OC(C)=O)c(OC(C)=O)cc4ccc3c2cc1OC(C)=O | 1.86 µM | 59.4 µM
CCCCCC[C@H]1C(=O)O[C@H](C)[C@H](NC(=O)c2cccc(NC=O)c2OC)C(=O)O[C@@H](C)[C@@H]1OC(=O)CCC (tested in a mixture with another compound) | 16.9 µM | 40.1 µM
CC1OC(OC2C(O)C(O)C(O)C(O)C2O)C(N)CC1N=C(N)C(=O)O (stereo not drawn) | – | > 100 µM
C=CC(=O)Nc1cc2c(Nc3ccc(F)c(Cl)c3)ncnc2cc1C#CC(C)(C)N1CCN(C)CC1 | 3.53 µM | 5.9 µM
CSC1=Nc2c(c(C)c(-c3ccccc3)n2COC(CO)CO)C2=NC(=O)CC(C)N12 (stereo not drawn) | 98.1 µM | > 100 µM
C=C1C[C@@H]2O[C@H]3[C@H]4[C@@H](CC[C@@](C)(OC(=O)CCC)[C@H]42)[C@@H](C)C(=O)O[C@@]3(C)CC[C@H]1OO | 25.7 µM | 55.3 µM
